The values below come from patent US8318422B2, “Antibacterial treatment of osteoarthritis” (Orthogenics AS, priority 2001, dated 2012).

The test system of test [1] is patients with Osteoarthritis. The experiment in a line: Clinical study: antibiotic treatment of patients with osteoarthritis, KOOS (Knee Injury and Osteoarthritis Outcome Score). It is filed as in vivo, human. The following applies: 100 mg daily for 4 weeks. The source says: Thirty patients were diagnosed and treated for one month with the antibiotic known generically internationally as Doxycycline, this was purchased as Vibramycin from Pfizer. Samples from synovial fluid were taken before and after treatment. We identified 30 patients that had clinical and radiological signs of Osteoarthritis. These patients were informed and signed a paper according to the instructions from the ethical committee (Northern Norway Health Region 5). We used the KOOS (Knee Injury and Osteoarthritis Outcome Score) [Roos et al: Development of a self-administered outcome measure. Journal of Orthopaedic and Sports Physical Therapy 78(2): 88-96, 1998] and the Lysholm score [Ref. […] and Lysholm: Rating systems in the Evaluation of Knee Ligament Injuries. Clinical Orthopaedics an Related Research Number 198 September 1985: 43-49.] During the first visit we took a sample from the synovial fluid. Standard technique, upper lateral portal, using a 10 ml. syringe. […] The samples were immediately put into an icebox and brought to the lab. All the patients were given Vibramycin 100 mg daily for 4 weeks. From the patients where we found the bacteria, we took new synovial-fluid samples using the same technique. […] KOOS: These parameters were analysed. • Symptoms • Activity of daily living • Sport • Quality of daily living • Pain

For the next test, the system named is collagenase. The following applies: Yu et al. 1991; cited from earlier work.
Test [2] relates to patients with Osteoarthritis. The experiment in a line: Clinical study: response to antibiotic treatment as determined by direct questions to the patients. The test is classed as in vivo, human. The following applies: following 4 weeks of treatment. The source says:
Thirty patients were diagnosed and treated for one month with the antibiotic known generically internationally as Doxycycline, this was purchased as Vibramycin from Pfizer. Samples from synovial fluid were taken before and after treatment. We identified 30 patients that had clinical and radiological signs of Osteoarthritis. These patients were informed and signed a paper according to the instructions from the ethical committee (Northern Norway Health Region 5). During the first visit we took a sample from the synovial fluid. Standard technique, upper lateral portal, using a 10 ml. syringe. […] The samples were immediately put into an icebox and brought to the lab. All the patients were given Vibramycin 100 mg daily for 4 weeks. From the patients where we found the bacteria, we took new synovial-fluid samples using the same technique. Table 3 below show a summary of the response to antibiotic treatment with tetracycline for four weeks as determined by direct questions to the patients on how they felt.

In test [3] the test system is Pseudomonas. Particulars: cited from earlier work.
The test system of test [4] is Pseudomonas. The following applies: cited from earlier work. This is another data set of the same source.

Consider `C[C@H]1c2cccc(O)c2C(O)=C2C(=O)[C@]3(O)C(O)=C(C(N)=O)C(=O)[C@@H](N(C)C)[C@@H]3[C@@H](O)[C@@H]21` [Vibramycin, Doxycycline], for which the “clinical scores for the patient (KOOS and Lysholm)” value in test [1] is reported as “improved all the clinical scores”. Also, in the test on collagenase, the “the patient's collagenase activity” value is “inhibit the patient's collagenase activity”. Further, in test [2], the “symptoms in the majority of patients tested” value is recorded as “improved symptoms”. For the molecule `CC(O)C(=O)O.O=C(O)c1cn(C2CC2)c2cc(N3CCNCC3)c(F)cc2c1=O` [ciprofloxacinlactate], the “effectiveness against Pseudomonas” value in the test with Pseudomonas [3] is “effective against Pseudomonas”. Regarding `NC(N)=NCCS` [mercaptoethylguanidine], the “inflammatory response of Pseudomonas infection due to nitric oxide” value with Pseudomonas [4] was “inhibit the inflammatory response”.
